The record followed here is ChEMBL document CHEMBL5291721, “A preclinical secondary pharmacology resource illuminates target-adverse drug reaction associations of marketed drugs” (Nat Commun, 2023).

One test concerns the target T1, Androgen receptor (Rattus norvegicus, UniProt P15207).
T1 sequence (P15207 whole entry): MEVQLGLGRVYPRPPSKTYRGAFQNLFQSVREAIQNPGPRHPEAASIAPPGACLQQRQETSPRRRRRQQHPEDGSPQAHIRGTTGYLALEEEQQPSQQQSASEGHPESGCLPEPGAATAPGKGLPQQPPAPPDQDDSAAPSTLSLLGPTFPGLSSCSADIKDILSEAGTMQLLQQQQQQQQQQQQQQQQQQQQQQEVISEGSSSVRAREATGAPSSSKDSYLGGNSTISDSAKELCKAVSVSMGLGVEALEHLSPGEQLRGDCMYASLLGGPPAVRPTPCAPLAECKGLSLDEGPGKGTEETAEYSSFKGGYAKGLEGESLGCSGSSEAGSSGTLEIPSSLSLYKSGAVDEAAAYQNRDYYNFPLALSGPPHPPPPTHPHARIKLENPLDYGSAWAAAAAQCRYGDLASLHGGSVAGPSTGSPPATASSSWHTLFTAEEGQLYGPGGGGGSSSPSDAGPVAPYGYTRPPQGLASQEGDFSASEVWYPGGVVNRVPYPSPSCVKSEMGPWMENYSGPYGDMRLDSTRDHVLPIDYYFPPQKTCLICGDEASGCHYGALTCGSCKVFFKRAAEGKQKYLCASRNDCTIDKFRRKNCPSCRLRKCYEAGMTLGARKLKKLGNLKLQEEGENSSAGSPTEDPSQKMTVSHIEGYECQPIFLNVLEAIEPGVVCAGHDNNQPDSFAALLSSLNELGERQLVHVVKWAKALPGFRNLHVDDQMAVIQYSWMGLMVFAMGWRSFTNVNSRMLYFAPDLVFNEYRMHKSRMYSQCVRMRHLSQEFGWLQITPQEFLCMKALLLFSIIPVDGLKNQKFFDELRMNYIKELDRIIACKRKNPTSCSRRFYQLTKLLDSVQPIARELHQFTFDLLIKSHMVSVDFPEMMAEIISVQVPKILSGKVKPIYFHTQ
Format: functional.

The target of test [1] is Beta-2 adrenergic receptor (Homo sapiens, UniProt P07550). It counts as functional, cell-based.
Beta-2 adrenergic receptor, sequence (P07550 whole entry): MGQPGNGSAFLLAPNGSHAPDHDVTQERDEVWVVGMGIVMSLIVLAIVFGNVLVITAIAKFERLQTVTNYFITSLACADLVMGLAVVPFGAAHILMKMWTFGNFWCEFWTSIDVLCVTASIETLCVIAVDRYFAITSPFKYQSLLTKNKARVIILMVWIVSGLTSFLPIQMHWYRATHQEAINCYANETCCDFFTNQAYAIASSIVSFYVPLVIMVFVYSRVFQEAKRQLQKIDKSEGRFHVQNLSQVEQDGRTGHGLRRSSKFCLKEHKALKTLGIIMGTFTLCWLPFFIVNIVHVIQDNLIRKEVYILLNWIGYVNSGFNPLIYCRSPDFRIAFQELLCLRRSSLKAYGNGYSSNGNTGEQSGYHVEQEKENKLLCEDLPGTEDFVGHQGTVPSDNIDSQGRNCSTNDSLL
In test [2] the target is T2, Corticotropin-releasing factor receptor 2 (Homo sapiens, UniProt Q13324).
T2 sequence (Q13324 whole entry): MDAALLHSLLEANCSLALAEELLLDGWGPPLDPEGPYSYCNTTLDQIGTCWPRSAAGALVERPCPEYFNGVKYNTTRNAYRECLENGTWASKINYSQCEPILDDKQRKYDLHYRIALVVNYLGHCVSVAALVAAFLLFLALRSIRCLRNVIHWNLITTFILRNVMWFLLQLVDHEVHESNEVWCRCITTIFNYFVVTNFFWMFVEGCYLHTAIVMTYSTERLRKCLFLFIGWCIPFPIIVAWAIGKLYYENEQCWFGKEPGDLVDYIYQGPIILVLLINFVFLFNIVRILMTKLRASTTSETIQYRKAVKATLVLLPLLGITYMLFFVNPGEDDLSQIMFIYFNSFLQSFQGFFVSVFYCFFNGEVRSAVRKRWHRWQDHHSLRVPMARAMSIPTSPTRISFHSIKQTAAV

In test [3] the target is Neurotensin receptor type 1 (Homo sapiens, UniProt P30989).
Neurotensin receptor type 1, sequence (P30989 whole entry): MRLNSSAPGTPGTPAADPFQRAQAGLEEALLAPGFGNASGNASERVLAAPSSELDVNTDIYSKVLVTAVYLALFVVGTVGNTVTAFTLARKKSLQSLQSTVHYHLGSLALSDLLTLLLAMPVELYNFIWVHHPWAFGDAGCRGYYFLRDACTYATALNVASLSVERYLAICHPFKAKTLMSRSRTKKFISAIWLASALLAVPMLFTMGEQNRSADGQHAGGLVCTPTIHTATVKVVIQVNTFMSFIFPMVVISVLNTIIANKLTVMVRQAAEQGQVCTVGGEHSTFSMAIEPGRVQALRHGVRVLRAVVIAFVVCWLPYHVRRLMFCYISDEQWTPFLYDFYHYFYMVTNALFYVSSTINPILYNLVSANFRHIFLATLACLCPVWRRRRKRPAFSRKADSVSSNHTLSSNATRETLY
Test [4] concerns the target Voltage-dependent N-type calcium channel subunit alpha-1B (Rattus norvegicus, UniProt Q02294). Format: functional.
Test [5] concerns the target T3, Muscarinic acetylcholine receptor M2 (Homo sapiens, UniProt P08172).
T3 sequence (P08172 whole entry): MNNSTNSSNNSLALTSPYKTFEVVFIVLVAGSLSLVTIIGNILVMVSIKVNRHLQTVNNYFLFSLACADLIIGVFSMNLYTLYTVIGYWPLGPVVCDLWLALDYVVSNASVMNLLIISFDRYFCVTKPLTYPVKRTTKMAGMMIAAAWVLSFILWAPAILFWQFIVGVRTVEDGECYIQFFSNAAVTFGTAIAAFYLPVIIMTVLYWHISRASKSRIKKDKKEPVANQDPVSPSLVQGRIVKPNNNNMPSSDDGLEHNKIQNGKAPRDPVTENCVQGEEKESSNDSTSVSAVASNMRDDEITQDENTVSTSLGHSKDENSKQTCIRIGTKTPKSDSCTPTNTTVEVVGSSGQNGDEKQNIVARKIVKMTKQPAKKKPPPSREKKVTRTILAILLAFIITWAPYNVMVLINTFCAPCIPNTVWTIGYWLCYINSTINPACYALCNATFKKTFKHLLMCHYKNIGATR

The target of the next test is Cannabinoid receptor 1 (Homo sapiens, UniProt P21554).
Cannabinoid receptor 1, sequence (P21554 whole entry): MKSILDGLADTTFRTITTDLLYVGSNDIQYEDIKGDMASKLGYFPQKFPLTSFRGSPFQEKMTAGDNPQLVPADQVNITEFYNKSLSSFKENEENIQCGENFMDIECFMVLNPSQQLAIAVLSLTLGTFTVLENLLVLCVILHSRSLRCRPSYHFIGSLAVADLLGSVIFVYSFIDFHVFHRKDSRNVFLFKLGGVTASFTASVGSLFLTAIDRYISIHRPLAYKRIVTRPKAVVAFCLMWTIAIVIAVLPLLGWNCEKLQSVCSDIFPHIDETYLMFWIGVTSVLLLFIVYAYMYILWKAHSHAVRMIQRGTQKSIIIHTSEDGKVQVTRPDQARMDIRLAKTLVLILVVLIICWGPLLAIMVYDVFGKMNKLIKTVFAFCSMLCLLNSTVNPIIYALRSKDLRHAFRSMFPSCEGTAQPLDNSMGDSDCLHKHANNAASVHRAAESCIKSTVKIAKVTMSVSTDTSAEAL
Test [6] addresses Beta-3 adrenergic receptor (Homo sapiens, UniProt P13945).
In test [7] the target is T4, Alpha-1A adrenergic receptor (Homo sapiens, UniProt P35348).
T4 sequence (P35348 whole entry): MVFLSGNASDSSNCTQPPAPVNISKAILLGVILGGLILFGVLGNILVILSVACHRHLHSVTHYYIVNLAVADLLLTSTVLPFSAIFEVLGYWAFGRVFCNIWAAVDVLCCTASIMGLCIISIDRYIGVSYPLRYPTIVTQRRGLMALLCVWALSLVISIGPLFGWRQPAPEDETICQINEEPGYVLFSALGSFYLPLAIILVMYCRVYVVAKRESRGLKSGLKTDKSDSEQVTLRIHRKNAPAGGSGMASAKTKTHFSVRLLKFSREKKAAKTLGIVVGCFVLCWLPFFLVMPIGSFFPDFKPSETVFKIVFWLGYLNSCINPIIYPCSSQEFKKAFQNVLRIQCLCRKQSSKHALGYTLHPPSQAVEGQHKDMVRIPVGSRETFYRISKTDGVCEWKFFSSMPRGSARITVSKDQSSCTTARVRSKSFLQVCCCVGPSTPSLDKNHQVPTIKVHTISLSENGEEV

Another test concerns the target Histamine H2 receptor (Homo sapiens, UniProt P25021).
Note: assay procedure not described here.

Histamine H2 receptor, sequence (P25021 whole entry): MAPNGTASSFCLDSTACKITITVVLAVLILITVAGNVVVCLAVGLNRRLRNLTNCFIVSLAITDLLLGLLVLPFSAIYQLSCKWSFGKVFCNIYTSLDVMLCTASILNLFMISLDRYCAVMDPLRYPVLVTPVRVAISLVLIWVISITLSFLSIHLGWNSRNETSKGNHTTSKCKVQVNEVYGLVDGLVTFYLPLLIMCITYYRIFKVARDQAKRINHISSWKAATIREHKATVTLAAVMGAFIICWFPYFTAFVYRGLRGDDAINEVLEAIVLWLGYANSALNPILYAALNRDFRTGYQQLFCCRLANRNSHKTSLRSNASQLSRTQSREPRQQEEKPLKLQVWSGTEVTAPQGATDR
Voltage-dependent N-type calcium channel subunit alpha-1B, sequence (Q02294 whole entry): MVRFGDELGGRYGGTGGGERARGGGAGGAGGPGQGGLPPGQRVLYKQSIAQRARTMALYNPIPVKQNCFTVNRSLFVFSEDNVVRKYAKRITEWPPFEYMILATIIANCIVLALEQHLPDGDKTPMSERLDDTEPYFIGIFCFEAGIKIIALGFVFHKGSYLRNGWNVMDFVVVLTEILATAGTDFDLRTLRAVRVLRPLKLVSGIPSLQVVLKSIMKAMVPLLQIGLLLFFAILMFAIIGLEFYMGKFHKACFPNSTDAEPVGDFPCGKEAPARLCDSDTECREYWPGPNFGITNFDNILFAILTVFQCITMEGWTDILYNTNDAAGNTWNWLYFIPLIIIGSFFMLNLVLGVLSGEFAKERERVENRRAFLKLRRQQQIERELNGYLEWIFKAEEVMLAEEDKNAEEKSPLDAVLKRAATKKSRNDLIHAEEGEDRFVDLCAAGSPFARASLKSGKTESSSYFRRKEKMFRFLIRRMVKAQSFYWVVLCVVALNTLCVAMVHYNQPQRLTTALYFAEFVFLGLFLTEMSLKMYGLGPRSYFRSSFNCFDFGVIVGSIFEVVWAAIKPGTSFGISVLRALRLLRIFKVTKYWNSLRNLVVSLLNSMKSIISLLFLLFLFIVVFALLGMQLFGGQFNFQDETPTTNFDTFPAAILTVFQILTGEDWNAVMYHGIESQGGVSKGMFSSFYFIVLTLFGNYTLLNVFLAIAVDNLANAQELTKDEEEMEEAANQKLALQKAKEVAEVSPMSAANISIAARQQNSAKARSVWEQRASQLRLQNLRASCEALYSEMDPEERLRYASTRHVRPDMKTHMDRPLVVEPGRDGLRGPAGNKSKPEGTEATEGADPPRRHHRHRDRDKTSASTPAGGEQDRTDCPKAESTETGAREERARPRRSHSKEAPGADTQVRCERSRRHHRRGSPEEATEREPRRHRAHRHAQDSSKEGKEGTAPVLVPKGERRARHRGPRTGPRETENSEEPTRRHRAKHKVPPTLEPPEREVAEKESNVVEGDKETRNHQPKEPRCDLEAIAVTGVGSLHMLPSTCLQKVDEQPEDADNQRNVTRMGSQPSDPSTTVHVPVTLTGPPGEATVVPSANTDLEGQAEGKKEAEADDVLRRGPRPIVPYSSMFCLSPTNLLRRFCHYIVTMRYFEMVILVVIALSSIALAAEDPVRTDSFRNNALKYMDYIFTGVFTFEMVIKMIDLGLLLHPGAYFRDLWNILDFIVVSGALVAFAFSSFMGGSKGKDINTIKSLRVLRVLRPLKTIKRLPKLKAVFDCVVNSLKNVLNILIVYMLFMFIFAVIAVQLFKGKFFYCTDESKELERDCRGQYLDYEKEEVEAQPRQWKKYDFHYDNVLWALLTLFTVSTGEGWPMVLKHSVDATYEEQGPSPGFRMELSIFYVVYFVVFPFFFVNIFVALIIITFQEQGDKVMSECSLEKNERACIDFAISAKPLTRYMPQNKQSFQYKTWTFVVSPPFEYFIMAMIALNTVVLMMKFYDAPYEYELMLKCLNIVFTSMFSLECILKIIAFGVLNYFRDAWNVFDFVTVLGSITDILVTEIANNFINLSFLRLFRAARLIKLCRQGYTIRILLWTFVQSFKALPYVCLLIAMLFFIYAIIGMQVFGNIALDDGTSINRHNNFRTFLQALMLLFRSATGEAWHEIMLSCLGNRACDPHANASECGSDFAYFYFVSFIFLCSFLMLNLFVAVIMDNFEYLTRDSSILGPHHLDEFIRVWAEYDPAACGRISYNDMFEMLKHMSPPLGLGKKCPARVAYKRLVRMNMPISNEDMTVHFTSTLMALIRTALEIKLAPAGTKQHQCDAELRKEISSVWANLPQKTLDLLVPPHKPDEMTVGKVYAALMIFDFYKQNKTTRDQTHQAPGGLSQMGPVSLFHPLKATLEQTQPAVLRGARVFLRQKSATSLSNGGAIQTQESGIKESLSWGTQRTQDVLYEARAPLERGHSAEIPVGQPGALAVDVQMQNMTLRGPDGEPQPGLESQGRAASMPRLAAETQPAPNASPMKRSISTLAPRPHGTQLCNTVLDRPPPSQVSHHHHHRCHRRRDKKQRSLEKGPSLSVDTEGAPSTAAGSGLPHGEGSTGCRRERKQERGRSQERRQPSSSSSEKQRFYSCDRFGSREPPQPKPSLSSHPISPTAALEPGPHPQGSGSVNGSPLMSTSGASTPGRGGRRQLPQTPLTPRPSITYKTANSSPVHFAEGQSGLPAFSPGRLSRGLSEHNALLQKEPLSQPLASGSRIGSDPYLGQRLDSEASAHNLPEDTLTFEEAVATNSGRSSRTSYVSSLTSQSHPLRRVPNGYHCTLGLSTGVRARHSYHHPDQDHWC
Beta-3 adrenergic receptor, sequence (P13945 whole entry): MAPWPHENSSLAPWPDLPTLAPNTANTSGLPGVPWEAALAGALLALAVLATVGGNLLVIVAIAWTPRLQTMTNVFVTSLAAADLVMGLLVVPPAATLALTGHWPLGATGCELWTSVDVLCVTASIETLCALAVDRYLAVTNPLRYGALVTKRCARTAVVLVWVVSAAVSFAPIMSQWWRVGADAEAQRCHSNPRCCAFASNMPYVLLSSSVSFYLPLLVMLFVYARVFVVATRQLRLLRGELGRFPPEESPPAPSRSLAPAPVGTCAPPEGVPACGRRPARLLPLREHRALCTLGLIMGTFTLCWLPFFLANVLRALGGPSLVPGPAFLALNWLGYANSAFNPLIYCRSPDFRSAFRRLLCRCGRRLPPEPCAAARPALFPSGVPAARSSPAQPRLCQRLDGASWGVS

Regarding `CCCCCCC(C)(C)c1cc(O)c2c(c1)OC(C)(C)C1CCC(=O)CC21` (stereo unspecified) [NABILONE], the AC50 (on Androgen receptor; in [1]) was more than 30 µM each time.
On to `O=C(O)CCCc1ccccc1` [PHENYLBUTANOIC ACID], for which the half-maximal activity concentration (AC50) in test [2] was more than 30 µM; in test [3] it was more than 30 µM; in [4], more than 10 µM; in [5] it was more than 10 µM; at Cannabinoid receptor 1, more than 30 µM; in [6] it was more than 30 µM. In addition, the AC50 in [7] is 14 µM.
For the compound `Cc1nc2ccc(CN(C)c3ccc(C(=O)N[C@@H](CCC(=O)O)C(=O)O)s3)cc2c(=O)[nH]1` [RALTITREXED], the AC50 on Androgen receptor and at Cannabinoid receptor 1 was more than 30 µM each time.
Regarding `Cc1ccc(-c2nc3ccc(C)cn3c2CC(=O)N(C)C)cc1` [ZOLPIDEM], the AC50 in test [2] is more than 30 µM; in test [1], more than 30 µM; on Histamine H2 receptor, more than 10 µM; in test [3] it was more than 30 µM; in test [4], more than 10 µM; in [5], more than 10 µM. Also, the figures for the AC50 (on Cannabinoid receptor 1; in [6]; in test [7]) were more than 30 µM, more than 30 µM and 6.76 µM, respectively.
As for `O=C1NCCN1CCN1CCC(c2cn(-c3ccc(F)cc3)c3ccc(Cl)cc23)CC1` [SERTINDOLE], the values for the AC50 (at Androgen receptor; in test [7]) were more than 30 µM and 0.017 µM, respectively.
The compound `CCCCN1CCCCC1C(=O)Nc1c(C)cccc1C` (stereo unspecified) [BUPIVACAINE] came in with an AC50 on Androgen receptor of more than 30 µM.
In the case of `O=C1CN=C(c2ccccc2)c2cc(Cl)ccc2N1CC(F)(F)F` [HALAZEPAM], the AC50 (on Androgen receptor; in test [1]) was more than 30 µM throughout.
With `CCC(C(=O)O)c1ccc(CC(C)C)cc1` (stereo unspecified) [BUTIBUFEN], the AC50 (on Androgen receptor; in test [1]) was more than 30 µM each time.
For `NC(=O)C[S+]([O-])C(c1ccccc1)c1ccccc1` (stereo unspecified) [MODAFINIL], the AC50 in test [2] is more than 30 µM; in test [1] it was more than 30 µM; at Histamine H2 receptor, more than 10 µM; in test [3], more than 30 µM; in test [4], more than 10 µM; in test [5] it was more than 10 µM. The AC50 at Cannabinoid receptor 1 was more than 10 µM; in test [6], more than 30 µM; in test [7] it was more than 10 µM.
For `COc1c(C)c2c(c(O)c1C/C=C(\C)CCC(=O)OCCN1CCOCC1)C(=O)OC2` [MYCOPHENOLATE MOFETIL], the AC50 (on Androgen receptor; in [1]) was more than 30 µM throughout.
At Androgen receptor, `CCOc1cc(N)c([N+](=O)[O-])cc1C(=O)NC1CCN(CC2CC=CCC2)CC1` (stereo unspecified) [CINITAPRIDE] returned an AC50 of more than 30 µM.
On to `Cc1c(C(=O)Nc2ccc(N3C[C@@H](C)O[C@@H](C)C3)nc2)cccc1-c1ccc(OC(F)(F)F)cc1` [SONIDEGIB], for which the half-maximal activity concentration (AC50) in test [2] is more than 30 µM; at Histamine H2 receptor, more than 10 µM; in [3], more than 30 µM; in [4] it was more than 10 µM; in test [5], more than 10 µM; on Cannabinoid receptor 1, more than 10 µM. In addition, the half-maximal activity concentration (AC50) in [6] is more than 30 µM.
For the compound `CN1CCc2cccc3c2[C@H]1Cc1ccc(O)c(O)c1-3` [APOMORPHINE], the concentration at half-maximal activity (AC50) was more than 30 µM in test [2]; more than 30 µM in [1]; more than 10 µM at Histamine H2 receptor; more than 30 µM in test [3]; more than 10 µM in test [4]; more than 10 µM in test [5]. For the same compound, the results for the AC50 (at Cannabinoid receptor 1; in test [6]; in test [7]) were more than 10 µM, more than 30 µM and more than 10 µM, respectively.
On to `COc1ccc2c(c1)c(CC(=O)OCC(=O)O)c(C)n2C(=O)c1ccc(Cl)cc1` [ACEMETACIN], for which the half-maximal activity concentration (AC50) at Androgen receptor was more than 30 µM.
On to `CN[C@@H](C)[C@H](O)c1ccccc1` [EPHEDRINE], for which the half-maximal activity concentration (AC50) was more than 30 µM in test [2]; more than 30 µM in [1]; more than 10 µM at Histamine H2 receptor; more than 30 µM in test [3]; more than 10 µM in [4]; more than 10 µM in test [5]. In addition, the concentration at half-maximal activity (AC50) on Cannabinoid receptor 1 was more than 10 µM; in [6], more than 30 µM; in test [7] it was more than 10 µM.
With `CN(C)C(=O)OC1N=C(c2ccccc2)c2cc(Cl)ccc2N(C)C1=O` (stereo unspecified) [CAMAZEPAM], the AC50 is more than 30 µM in [2]; more than 30 µM in [1]; more than 10 µM at Histamine H2 receptor; more than 30 µM in [3]; more than 10 µM in test [4]; more than 10 µM in test [5]. In addition, the concentration at half-maximal activity (AC50) at Cannabinoid receptor 1 is more than 10 µM; in [6] it was more than 30 µM; in test [7] it was more than 10 µM.
Regarding `Cc1cc(-c2ccccc2)nnc1NCCN1CCOCC1` [MINAPRINE], the concentration at half-maximal activity (AC50) in test [2] was more than 30 µM; in test [1], more than 30 µM; at Histamine H2 receptor, more than 10 µM; in [3], more than 30 µM; in test [4] it was more than 10 µM; in test [5], more than 10 µM. In addition, the AC50 is 9.5 µM on Cannabinoid receptor 1, more than 30 µM in test [6] and more than 10 µM in test [7].
Take `COc1ccc2cccc(CCNC(C)=O)c2c1` [AGOMELATINE]: the half-maximal activity concentration (AC50) in [2] was more than 30 µM; at Histamine H2 receptor, more than 10 µM; in test [3] it was more than 30 µM; in [4], more than 10 µM; in test [5], more than 10 µM; at Cannabinoid receptor 1 it was more than 10 µM. The AC50 in test [6] is more than 30 µM; in [7], more than 10 µM.
As to `CC[C@]1(O)C[C@@H]2CN(CCc3c([nH]c4ccccc34)[C@@](C(=O)OC)(c3cc4c(cc3OC)N(C)[C@H]3[C@@](O)(C(N)=O)[C@H](O)[C@]5(CC)C=CCN6CC[C@]43[C@@H]65)C2)C1` [VINDESINE], the AC50 on Androgen receptor and at Cannabinoid receptor 1 was more than 30 µM throughout.
For TOCOFERSOLAN, the half-maximal activity concentration (AC50) on Androgen receptor is more than 30 µM.
On Androgen receptor, `CC(C)(Oc1ccc(C2CC2(Cl)Cl)cc1)C(=O)O` (stereo unspecified) [CIPROFIBRATE] yielded an AC50 of more than 30 µM.
On the same count and under the same terms, the result for `O=C(OCCN1CCOCC1)c1cccnc1Nc1cccc(C(F)(F)F)c1` [MORNIFLUMATE] reads more than 30 µM.
Take `NC(CO)C(=O)NNCc1ccc(O)c(O)c1O` (stereo unspecified) [BENSERAZIDE]: the AC50 in test [2] is more than 30 µM; in test [1], more than 30 µM; on Histamine H2 receptor it was more than 10 µM; in test [3], more than 30 µM; in test [4], more than 10 µM; in test [5], more than 10 µM. For the same compound, the AC50 on Cannabinoid receptor 1 is more than 10 µM; in [6] it was more than 30 µM; in test [7], more than 10 µM.
`COC(=O)[C@H]1[C@@H](OC(=O)c2ccccc2)C[C@@H]2CC[C@H]1N2C` [COCAINE]: the half-maximal activity concentration (AC50) at Androgen receptor was more than 30 µM.

Usually AC50 stands for the concentration giving half of the maximal activity seen.
